According to patent publication US11247984B2, “Uracil containing compounds” (CV6 Therapeutics (NI) Limited, priority 2017, dated 2022):

What was measured:
[1] = system: colorectal (HCT116 and SW620) cell line models; test: MTS growth inhibition assay; type: cell-based; conditions: 5-FU between 0 and 100 μmol/L
Protocol: The Cell Titer AQueous MTS assay (Promega) is carried out according to the manufacturers guidelines. […] The combination effect is determined by the combination index (CI) method utilizing Calcusyn software (Biosoft, Ferguson, Mo.). Fraction affected (FA) is calculated from the percent growth inhibition: FA=[…]. CI values <1, synergism; 1-1.2, additive and >1.2, antagonism.
Test compounds are evaluated for their antitumor activity in colorectal cancer cells using the MTS growth inhibition assay. HCT116 and SW620 cells are exposed to increasing concentrations of each agent for 72 hours and growth inhibition is directly compared to vehicle-treated controls. The NSCLC cell lines A549 and H1299 are exposed to increasing concentrations of each agent for 72 hours and growth inhibition is directly compared to vehicle-treated controls.
MTS growth inhibition assays are performed to evaluate the effectiveness of the test compounds alone and in combination with the fluoropyrimidine thymidylate synthase (TS) inhibitor 5-fluorouracil (5-FU) at inhibiting the growth of colorectal (HCT116 and SW620) cell line models. […] Simultaneous treatment with increasing concentrations of 5-FU and a test compound at fixed concentrations of 25 μmol/L is determined.

[2] = target: T1, recombinant human deoxyuridine nucleotidohydrolase (dUTPase) (Homo sapiens, UniProt P33316); test: fluorescence-based dUTPase inhibition assay; type: biochemical; conditions: for % relative inhibition vs. positive control: mean across three concentrations, typically 100, 50 and 25 μmol/L, compared to in-run positive control
T1 construct: made in house
T1 sequence (P33316 1-164 isoform P33316-2): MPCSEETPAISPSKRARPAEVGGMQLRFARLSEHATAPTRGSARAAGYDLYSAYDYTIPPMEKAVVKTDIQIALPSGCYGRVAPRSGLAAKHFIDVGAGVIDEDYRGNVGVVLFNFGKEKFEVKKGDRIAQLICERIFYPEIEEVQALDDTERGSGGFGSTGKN
Description: Recombinant human deoxyuridine nucleotidohydrolase (dUTPase) is expressed and purified as described in Ladner R D, Carr S A, Huddleston M J, McNulty D E, Caradonna S J. J Biol Chem. 1996 Mar. 29; 271(13):7752-7. All drugs stocks are aliquoted and diluted as appropriate prior to use. The oligonucelotide primer, templates and fluorophore- and quencher-labeled detection probes are synthesized by Integrated DNA Technologies (Coralville, Iowa), subjected to polyacrylamide gel electrophoresis purification and reconstituted in Omnipur sterile nuclease-free water (EMD Chemicals USA, Gibbstown N.J.) at a stock concentration of 100 μmol/L. The two non-emissive (dark) quenching molecules incorporated into the detection probes include the Iowa black fluorescein quencher (IBFQ; absorption max 531 nm) and ZEN (non-abbreviation; absorption max 532 nm). The fluorescent label utilized is 6-FAM (5′-carboxyfluorescein; excitation max.=494 nm, emission max.=520 nm). Probes are further diluted to a working stock of 10 μmol/L and aliquoted to avoid repeated freeze/thaw cycles. AmpliTaq Gold DNA Polymerase, GeneAmp 10×PCR Buffer 2, MgCl2 and MicroAmp Optical 96-well Reaction Plates are purchased from Applied Biosystems (Carlsbad, Calif.). dNTPs are purchased individually at stock concentrations of 100 mmol/L from New England Biolabs at HPLC-certified >99% purity (Ipswich, Mass.).
Reaction mixtures contained primer, probe and template at an equimolar final concentration of 0.4 μmol/L. Magnesium chloride (MgCl2) is included at a final concentration of 2 mmol/L. Non-limiting dNTPs are included in the reaction mix in excess at a final concentration of 100 μmol/L (dUTP/dTTP is excluded). AmpliTaq Gold DNA polymerase is added at 0.875 U/reaction, 2.5 μl of 10×PCR buffer 2 added and nuclease-free ddH2O added to a final reaction volume of 25 μl. For dUTP inhibition analysis, the volume of ddH2O is further modified to accommodate an additional 1 μl of dUTPase (10 ng/μt) and 1 μl of inhibitor or DMSO control. Thermal profiling and fluorescence detection is performed using a customized thermal program on board a Roche Lightcycler LC480 Instrument II. For analysis of dNTPs, the thermal profile consisted of an 8 min 37° C. step followed by a 10 min 95° C. step to ‘hot-start’ the Taq polymerase and a primer extension time of up to 30 min at 60° C. Raw fluorescence spectra for 6-FAM is measured at specified time intervals to follow assay progression on board a Roche LightCycler 480 Software Version 1.5 and exported and analyzed in Microsoft Excel (Microsoft, Redmond Wash.) and Prism (GraphPad Software, La Jolla Calif.). Fluorescence values for blank reactions (limiting dNTP omitted) are subtracted to give normalized fluorescence units (NFU) to account for background fluorescence.
Test compounds are screened in a fluorescence-based assay. The assay employs a DNA polymerase-based approach utilizing an oligonucleotide template with 3 distinct regions: a 3′ primer binding region, a mid-template dUTP/thymidine triphosphate (TTP) detection region and a 5′ 6-[…] (FAM)-labeled probe binding region that incorporates a black hole quenching moiety. During the reaction, the probe and primer hybridize to the oligonucleotide template to form the template:primer:probe complex. When Taq polymerase binds to the primer in the TPP complex and dUTP is present, successful extension of the nascent strand occurs and the inherent 5′ to 3′ exonuclease activity of Taq polymerase cleaves and displaces the 6-FAM-labeled probe in a 5′ to 3′ direction, releasing the 6-FAM fluorophore from its proximity to the […]. This displacement effectively disrupts the Forster resonance energy transfer (FRET) and the resulting fluorescence detected upon excitation is directly proportional to the amount of the dUTP available in the assay for incorporation. […]

[3] = system: colorectal (HCT116), breast (MCF-7) and non-small cell lung (H1299, A549, H358 and H460) cell line models; test: colony forming assay; type: cell-based; conditions: FUdR between 0.5 and 2.5 μmol/L; all cell lines evaluated
Protocol: Colony forming assay showing the ability of colon (SW620, HCT116), non-small cell lung (A549, H460, H1299 and H358) and breast (MCF7) cancer cells to survive and proliferate following transient 24 hour exposure to test compounds, FUdR and combinations are determined. Specifically, cells are seeded at densities between 50 and 100 cells/well in 24-well plates. Twenty-four hours later, cells are treated with increasing concentrations of a rtest compound, a fixed dose of FUdR and combinations of these. After 24 hours, drug is removed, cells are rinsed and allowed to outgrow for 10-14 days. At the conclusion of the outgrowth, cells are fixed in 60% ice cold methanol and stained with 0.1% crystal violet, scanned and counted. Data is presented as percentage of untreated controls (mean±SD). Fraction affected and combination indexes are calculated according to the method of Chou and Talalay where <1 is indicative of a synergistic drug interaction.
Colony forming assays are performed to evaluate the effectiveness of test compounds alone and in combination with the fluoropyrimidine thymidylate synthase (TS) inhibitor fluorodeoxyuridine (FUdR) at reducing cancer cell viability in colorectal (HCT116), breast (MCF-7) and non-small cell lung (H1299, A549, H358 and H460) cell line models. […]

| % relative inhibition vs. positive control [2] [%] | SMILES | also measured |
| --- | --- | --- |
| – | O=c1[nH]cc(F)c(=O)[nH]1 [Example 5-FU, 5-fluorouracil] | growth inhibition [1]: dose-dependent increases in growth inhibition |
| 145 | CC(C)[C@@H](NS(=O)(=O)CC/C=C/CN1CCC(=O)NC1=O)c1ccc(F)c(OCC2CC2)c1 [Example 79, (R,E)-N-(1-(3-(cyclopropylmethoxy)-4-fluorophenyl)-2-methylpropyl)-5-(2,4-dioxotetrahydropyrimidin-1(2H)-yl)pent-3-ene-1-sulfonamide] | – |
| 103 | CC(C)[C@@H](NS(=O)(=O)CCCCCN1CCC(=O)NC1=O)c1ccc(F)c(OCC2CC2)c1 [Example 80, (R)—N-(1-(3-(cyclopropylmethoxy)-4-fluorophenyl)-2-methylpropyl)-5-(2,4-dioxotetrahydropyrimidin-1(2H)-yl)pentane-1-sulfonamide] | – |
| 174 | C[C@@H](NS(=O)(=O)CCCOCN1CCC(=O)NC1=O)c1cccc(OCC2CC2)c1 [Example 82, (R)—N-(1-(3-(cyclopropylmethoxy)phenyl)ethyl)-3-((2,4-dioxotetrahydropyrimidin-1(2H)-yl)methoxy)propane-1-sulfonamide] | – |
| 166 | CC[C@@H](NS(=O)(=O)CCCOCN1CCC(=O)NC1=O)c1ccc(F)c(OCC2CC2)c1 [Example 83, (R)—N-(1-(3-(cyclopropylmethoxy)-4-fluorophenyl)propyl)-3-((2,4-dioxotetrahydropyrimidin-1(2H)-yl)methoxy)propane-1-sulfonamide] | – |
| 214 | C[C@@H](NS(=O)(=O)CCCCCn1ccc(=O)[nH]c1=O)c1ccc(F)c(OCC2CC2)c1 [Example 84, (R)—N-(1-(3-(cyclopropylmethoxy)-4-fluorophenyl)ethyl)-5-(2,4-dioxo-3,4-dihydropyrimidin-1(2H)-yl)pentane-1-sulfonamide] | IC50 ([2]; recombinant dUTPase, 8 min at 37° C.): 300 nM |
| – | O=c1[nH]c(=O)n([C@H]2C[C@H](O)[C@@H](CO)O2)cc1F [FUdR, fluorodeoxyuridine] | colonies formed [3]: dose-dependent decreases in colonies formed |

| SMILES | % relative inhibition vs. positive control [2] [%] | also measured |
| --- | --- | --- |
| CC(C)COc1cc(C(C)(C)NS(=O)(=O)CC/C=C/CN2CCC(=O)NC2=O)ccc1F [Example 81, (E)-5-(2,4-dioxotetrahydropyrimidin-1(2H)-yl)-N-(2-(4-fluoro-3-isobutoxyphenyl)propan-2-yl)pent-3-ene-1-sulfonamide] | 80 | – |
| C[C@H](NS(=O)(=O)CCCCCn1ccc(=O)[nH]c1=O)c1ccc(F)c(OCC2CC2)c1 [Example 86, (S)—N-(1-(3-(cyclopropylmethoxy)-4-fluorophenyl)ethyl)-5-(2,4-dioxo-3,4-dihydropyrimidin-1(2H)-yl)pentane-1-sulfonamide] | 54 | – |
